Assay results published in US20060281813A1, “Methods of treating hyperproliferative cell disorders” (priority 2003, published 2006).
“And” between values parts separate entries of the source, which are not always exact repeats. Equal entries are not always repeated. Where two headings read alike, the source gives them in different places.

Columns and labels:
[1] = system: ER+ or ER− tumor lines; details: cited from earlier work
[2] = system: cutaneous T-cell lymphoma; details: single patient, oral, with the VD analog calcitriol; cited from earlier work
[3] = system: colorectal cancer; details: cited from earlier work
[4] = system: Xenopus laevis; details: Xenopus laevis system; cited from earlier work
[5] = system: small cell lung cancer; experiment: Example 8: small cell lung cancer patients with disease progression on IRESSA alone; assay type: in vivo, human; details: added to IRESSA about 250-500 mg per day; oral about 100 to 500 mg per day
[6] = system: F9 embryonal mouse teratocarcinoma cells; details: all-trans RA-treated, differentiating F9 cells, 18 hour period; cited from earlier work
[7] = system: refractory/progressive lung cancer; details: single agent; cited from earlier work
[8] = system: non small cell lung cancer; experiment: Example 2: patient with non small cell lung cancer; assay type: in vivo, human
Method: A patient suffering from non small cell lung cancer was treated with IRESSA® (250 mg per day) for two months. The disease progressed during the treatment and thae patient was continued on IRESSA® (250 mg per day) with daily dosage of 4-oxo-retinol (75 mg per day) for two months. The disease became stable and the patient continued taking IRESSA® (250 mg per day) for 4 more months without 4-oxo-retinol with a stale disease.

[9] = cited from earlier work; for peak 1,25-dihydroxyvitamin D serum concentration: healthy volunteers
[10] = cited from earlier work
[11] = system: lung cancer; experiment: Example 6: patients with lung cancer; assay type: in vivo, human; details: oral 100 mg/square meter with oral IRESSA
[12] = system: advanced head and neck cancer; experiment: Example 5: patients with advanced head and neck cancer; assay type: in vivo, human; details: oral 100 mg/square meter with oral IRESSA or intravenous C-225
Source text: Current systemic chemotherapy regimens are unable to prolong survival of patients with advanced head and neck cancer.

[13] = system: retinoid receptor subtype; details: competition with all-trans RA; cited from earlier work
[14] = system: breast cancer, prostate cancer or leukemia; experiment: Example 4: patients with breast cancer, prostate cancer or leukemia; assay type: in vivo, human; details: oral 100 mg/square meter with oral IRESSA
[15] = system: lung cancer; experiment: Example 7: lung cancer patients with disease progression on IRESSA alone; assay type: in vivo, human; details: added to IRESSA, oral 100 mg/square meter, optionally calcitriol 0.1-1 mcg per day
[16] = tumors capable of producing 4-oxo-retinol
[17] = tumors that don't produce 4-oxo-retinol
[18] = up to 32 mcg/day for 3 months, patients with osteopetrosis
[19] = 4 mcg per day for 4 days, postmenopausal women
[20] = up to 2.7 mcg/day for 7 to 15 days, normal volunteers

## CC1=C(/C=C/C(C)=C/C=C/C(C)=C/C(=O)Nc2ccc(O)cc2)C(C)(C)CCC1 [N-(4-hydroxyphenyl)retinamide]
[1]; [16]
  growth inhibition: growth inhibitory
[1]; [17]
  growth inhibition: lack growth inhibitory effects

## COc1cc(C)c(/C=C/C(C)=C/C=C/C(C)=C/C(=O)O)c(C)c1C [acitretin]
[2]
  clinical response: complete remission

## CCc1c2c(nc3ccc(OC(=O)N4CCC(N5CCCCC5)CC4)cc13)-c1cc3c(c(=O)n1C2)COC(=O)[C@]3(O)CC [IRITONECAN®]
[3]
  single-agent activity: significant single-agent activity

## CC1=C(/C=C/C(C)=C/C=C/C(C)=C/C(=O)O)C(C)(C)CCC1 [all-trans RA, all-trans-retinoic acid]
[1]; [16]
  growth inhibition: growth inhibitory
[1]; [17]
  growth inhibition: lack growth inhibitory effects
[4]
  ED50, teratogenicity: ~100 nM

## C=C(c1ccc(C(=O)O)cc1)c1cc2c(cc1C)C(C)(C)CCC2(C)C [bexarotene]
[5]
  disease course: stable disease or a reduced tumor burden

## CC1=C(/C=C/C(C)=C/C=C/C(C)=C/CO)C(C)(C)CCC1 [retinol, Retinol]
[6]
  share of total retinol metabolized to 4-hydroxy-retinol and then 4-oxo-retinol: 10-15%

## COc1cc2ncnc(Nc3ccc(F)c(Cl)c3)c2cc1OCCCN1CCOCC1 [IRESSA®, gefitinib]
[7]
  overall rate of response: 10-15%
[8]; 250 mg per day alone for two months
  disease course: progressed
[8]; 250 mg per day for 4 more months without 4-oxo-retinol
  disease course: stale disease

## C=C1/C(=C\C=C2/CCC[C@]3(C)[C@@H]([C@H](C)CCCC(C)(C)O)CC[C@@H]23)C[C@@H](O)C[C@@H]1O [calcitriol]
[9]; 2 mcg single oral dose
  peak 1,25-dihydroxyvitamin D serum concentration: 0.235 nM and 0.351 nM
[9]; in vivo
  serum half life: 3 to 6 h
  time to peak serum concentration: 2 h
[9]; single oral dose of 4 mcg
  peak 1,25-dihydroxyvitamin D serum concentration: 0.42 nM
[9]; up to 3 mcg/day for 6-12 days, normal volunteers
  stable 1,25-dihydroxyvitamin D serum levels: 0.184 to 0.235 nM
[9]; [18]
  peak of stable serum levels of 1,25-dihydroxyvitamin D: 2.32 nM
[10]; [19]
  hypercalcemia: no clinically significant hypercalcemia
  patients with serum calcium above 10.8: Four of the 27
  urinary calcium excretion: increased
  urinary hydroxyproline excretion: no increase
[10]; given intermittently
  dose tolerated without hypercalcemia: ≤ 0.48 µg/kg
[10]; in vivo
  duration of hypercalcemic effect: 3 to 5 days
  time of maximal hypercalcemic effect: 10 h
[10]; single oral dose of 4 mcg, healthy volunteers
  serum calcium: no elevation
[10]; [20]
  calcium absorption and excretion: increased
  serum calcium: no significant elevations
[10]; up to 3 mcg/day for 6-12 days, low calcium diet
  patients with elevation in serum calcium: None of the patients
[10]; [18]
  hypercalcemia: no hypercalcemia

## CC1=C(/C=C/C(C)=C/C=C/C(C)=C/CO)C(C)(C)CCC1O (centres unmarked) [4-hydroxy-retinol]
[11]
  tumor burden versus IRESSA alone: reduced tumor burden
[12]
  survival rate versus IRESSA or C-225 alone: better survival rate
[13]
  displacement of all-trans RA: Neither compound efficiently displaced all-trans RA
[14]
  tumor burden versus IRESSA alone: reduced tumor burden
[15]
  tumor burden: reduced tumor burden
